Ends that are not written are not given here. Peptide text beside a SMILES is read from it. * marks the point of attachment. Biotin = O=C1N[C@H]2[C@H](CS[C@H]2CCCCC(=O)*)N1
Molecular target: T1, PDZ protein (GST-PDZ fusion) (Homo sapiens, UniProt Q14CM0)
T1 construct: made in house; host or cells: E. coli (DH5alpha, BL21 or JM109)
T1 sequence (Q14CM0 1-1322): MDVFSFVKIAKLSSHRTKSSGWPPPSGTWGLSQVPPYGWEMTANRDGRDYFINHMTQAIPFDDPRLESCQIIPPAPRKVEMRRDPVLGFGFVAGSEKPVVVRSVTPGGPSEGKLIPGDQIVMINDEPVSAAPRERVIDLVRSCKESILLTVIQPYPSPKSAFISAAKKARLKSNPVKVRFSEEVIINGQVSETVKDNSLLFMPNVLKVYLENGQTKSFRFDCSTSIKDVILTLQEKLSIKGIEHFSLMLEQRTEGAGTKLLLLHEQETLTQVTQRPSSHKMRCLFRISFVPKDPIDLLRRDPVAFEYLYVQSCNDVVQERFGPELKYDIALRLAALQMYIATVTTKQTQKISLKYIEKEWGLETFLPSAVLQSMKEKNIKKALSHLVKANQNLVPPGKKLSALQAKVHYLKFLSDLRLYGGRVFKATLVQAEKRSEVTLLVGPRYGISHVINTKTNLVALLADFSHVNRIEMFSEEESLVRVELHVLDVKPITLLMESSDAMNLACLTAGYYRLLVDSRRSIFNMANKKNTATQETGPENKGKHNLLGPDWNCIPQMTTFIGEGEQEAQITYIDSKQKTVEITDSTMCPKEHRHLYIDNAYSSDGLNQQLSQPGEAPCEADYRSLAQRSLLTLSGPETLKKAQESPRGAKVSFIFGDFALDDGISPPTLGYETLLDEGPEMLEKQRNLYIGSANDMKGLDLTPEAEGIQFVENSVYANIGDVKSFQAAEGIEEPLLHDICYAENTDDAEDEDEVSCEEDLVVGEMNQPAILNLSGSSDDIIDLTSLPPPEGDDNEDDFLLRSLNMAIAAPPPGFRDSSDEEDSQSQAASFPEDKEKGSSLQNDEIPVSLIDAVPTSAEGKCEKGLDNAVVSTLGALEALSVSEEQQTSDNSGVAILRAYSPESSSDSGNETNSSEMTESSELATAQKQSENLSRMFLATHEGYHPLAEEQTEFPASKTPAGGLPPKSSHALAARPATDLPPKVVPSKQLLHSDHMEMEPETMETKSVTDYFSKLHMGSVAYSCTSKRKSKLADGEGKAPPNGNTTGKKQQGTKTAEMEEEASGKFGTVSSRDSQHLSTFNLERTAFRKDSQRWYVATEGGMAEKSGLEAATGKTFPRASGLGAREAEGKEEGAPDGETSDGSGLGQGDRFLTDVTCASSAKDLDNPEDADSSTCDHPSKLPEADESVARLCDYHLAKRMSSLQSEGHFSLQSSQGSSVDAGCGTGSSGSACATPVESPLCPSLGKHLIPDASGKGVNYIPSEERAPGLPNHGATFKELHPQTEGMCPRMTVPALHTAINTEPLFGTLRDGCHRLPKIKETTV
Test: G' assay (10 uM PL peptide), results of TABLE 7 and TABLE 12
Assay type: binding
Details: PDZ KIAA0316, PDZ Domain 1
Outline: (§1)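 Same steps as the G-zero format, apart from a peptide concentration of 10 uM in place of 20 uM in step 2. Amino-terminally biotinylated PL peptides bind GST-PDZ fusions, and retained peptide is quantified by 450 nm absorbance.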

| Compound | Classification |
| --- | --- |
| CC(C)C[C@H](NC(=O)[C@H](C)NC(=O)[C@@H](NC(=O)[C@H](CCC(=O)O)NC(=O)[C@H](CCCNC(=N)N)NC(=O)[C@H](CCCNC(=N)N)NC(=O)CNC(=O)[C@H](CCC(N)=O)NC(=O)[C@H](CC(C)C)NC(=O)[C@H](CCCNC(=N)N)NC(=O)CNC(=O)CNC(=O)[C@H](CCCNC(=N)N)NC(=O)[C@H](C)NC(=O)[C@H](CO)NC(=O)[C@H](CCCNC(=N)N)NC(=O)CNC(=O)CNC(=O)[C@H](C)NC(=O)[C@H](C)NC(=O)CCCC[C@@H]1SC[C@@H]2NC(=O)N[C@@H]21)[C@@H](C)O)C(=O)O [HPV E6 33 (modified)] (Biotin-AAGGRSARGGRLQGRRETAL-OH; C-terminus assumed) | 2 (A450 nm 1-2) |
| CC(C)C[C@H](NC(=O)[C@H](C)NC(=O)[C@@H](NC(=O)[C@@H](NC(=O)[C@H](Cc1c[nH]cn1)NC(=O)[C@H](CC(C)C)NC(=O)CNC(=O)[C@H](CCC(N)=O)NC(=O)CNC(=O)CNC(=O)[C@H](C)NC(=O)[C@H](C)NC(=O)[C@H](CCCNC(=N)N)NC(=O)[C@H](C)NC(=O)[C@H](CO)NC(=O)[C@H](CC(=O)O)NC(=O)[C@H](CC(=O)O)NC(=O)[C@H](Cc1c[nH]c2ccccc12)NC(=O)[C@H](C)NC(=O)CCCC[C@@H]1SC[C@@H]2NC(=O)N[C@@H]21)C(C)C)[C@@H](C)O)C(=O)O [LPAP] (Biotin-AWDDSARAAGGQGLHVTAL-OH; C-terminus assumed) | 1 (A450 nm 0-1) |
| CC(C)C[C@H](NC(=O)[C@H](CC(C)C)NC(=O)[C@@H](NC(=O)[C@H](CC(=O)O)NC(=O)CCCC[C@@H]1SC[C@@H]2NC(=O)N[C@@H]21)[C@@H](C)O)C(=O)N[C@@H](CC(C)C)C(=O)N[C@H](C(=O)N[C@@H](CCC(=O)O)C(=O)N[C@@H](CC(N)=O)C(=O)N[C@@H](CCC(=O)O)C(=O)NCC(=O)N[C@@H](CC(=O)O)C(=O)N[C@@H](CCCCN)C(=O)N[C@H](C(=O)N[C@@H](CCC(=O)O)C(=O)N[C@@H](CCC(=O)O)C(=O)N[C@@H](CCC(N)=O)C(=O)N[C@H](C(=O)N[C@@H](CO)C(=O)N[C@@H](Cc1ccc(O)cc1)C(=O)N[C@H](C(=O)O)C(C)C)C(C)C)[C@@H](C)O)[C@@H](C)O [5H2B_HUMAN] (Biotin-DTLLLTENEGDKTEEQVSYV-OH; C-terminus assumed) | 1 (A450 nm 0-1) |

Molecular target: T2, PDZ protein (GST-PDZ fusion) (Homo sapiens, UniProt Q96RT1)
T2 construct: made in house; host or cells: E. coli (DH5alpha, BL21 or JM109)
T2 sequence (Q96RT1 whole entry, the tested form may be a part): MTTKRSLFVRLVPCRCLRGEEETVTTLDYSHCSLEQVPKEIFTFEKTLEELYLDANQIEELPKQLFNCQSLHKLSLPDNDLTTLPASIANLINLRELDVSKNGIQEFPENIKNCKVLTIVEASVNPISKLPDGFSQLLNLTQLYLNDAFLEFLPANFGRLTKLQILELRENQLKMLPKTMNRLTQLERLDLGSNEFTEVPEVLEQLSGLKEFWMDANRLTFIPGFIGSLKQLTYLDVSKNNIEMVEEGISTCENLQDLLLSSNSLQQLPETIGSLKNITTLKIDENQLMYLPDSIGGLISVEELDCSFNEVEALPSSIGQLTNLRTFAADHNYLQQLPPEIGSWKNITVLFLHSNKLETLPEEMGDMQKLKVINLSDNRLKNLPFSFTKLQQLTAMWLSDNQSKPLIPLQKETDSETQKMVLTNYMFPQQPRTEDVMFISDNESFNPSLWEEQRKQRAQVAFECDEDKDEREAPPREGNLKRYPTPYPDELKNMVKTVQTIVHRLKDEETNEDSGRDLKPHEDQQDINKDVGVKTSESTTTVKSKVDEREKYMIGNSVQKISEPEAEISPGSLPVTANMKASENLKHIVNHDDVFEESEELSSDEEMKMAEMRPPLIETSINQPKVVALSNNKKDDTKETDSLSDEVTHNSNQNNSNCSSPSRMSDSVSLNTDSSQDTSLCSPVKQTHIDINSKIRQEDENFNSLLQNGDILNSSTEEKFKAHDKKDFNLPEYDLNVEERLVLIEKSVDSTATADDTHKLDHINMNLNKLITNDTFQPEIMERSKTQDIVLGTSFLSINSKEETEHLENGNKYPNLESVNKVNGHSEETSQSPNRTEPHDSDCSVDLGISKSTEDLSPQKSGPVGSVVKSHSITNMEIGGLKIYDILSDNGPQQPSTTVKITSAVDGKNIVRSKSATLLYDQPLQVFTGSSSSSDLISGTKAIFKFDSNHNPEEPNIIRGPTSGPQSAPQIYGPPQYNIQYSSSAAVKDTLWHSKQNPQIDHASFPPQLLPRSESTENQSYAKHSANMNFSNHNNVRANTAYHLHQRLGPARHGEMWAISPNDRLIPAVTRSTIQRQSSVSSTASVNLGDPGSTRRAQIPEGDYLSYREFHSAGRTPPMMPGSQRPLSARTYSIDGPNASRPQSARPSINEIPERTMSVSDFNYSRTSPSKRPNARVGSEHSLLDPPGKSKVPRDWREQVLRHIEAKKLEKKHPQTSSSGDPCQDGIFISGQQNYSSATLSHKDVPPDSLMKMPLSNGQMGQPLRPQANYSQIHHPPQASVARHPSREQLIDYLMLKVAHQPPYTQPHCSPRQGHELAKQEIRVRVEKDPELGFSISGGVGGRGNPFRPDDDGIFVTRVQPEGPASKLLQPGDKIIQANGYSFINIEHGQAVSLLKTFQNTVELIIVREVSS
Test: as above
Assay type: binding
Details: PDZ Erbin, PDZ Domain 1
Outline: as §1

| Compound | Classification |
| --- | --- |
| ELLQFCRTPNPALKNGQYWV (Biotin-ELLQFCRTPNPALKNGQYWV) | 3 (A450 nm 2-3) |
| CSCC[C@H](NC(=O)[C@H](C)NC(=O)[C@H](CCCNC(=N)N)NC(=O)CNC(=O)[C@@H](NC(=O)[C@H](Cc1c[nH]c2ccccc12)NC(=O)[C@H](CCCNC(=N)N)NC(=O)CNC(=O)CCCC[C@@H]1SC[C@@H]2NC(=O)N[C@@H]21)[C@@H](C)O)C(=O)N[C@@H](CO)C(=O)N[C@@H](C)C(=O)N[C@@H](Cc1c[nH]c2ccccc12)C(=O)N[C@@H](CCCCN)C(=O)N1CCC[C@H]1C(=O)N[C@H](C(=O)N[C@@H](CCCNC(=N)N)C(=O)N[C@@H](CCCNC(=N)N)C(=O)N[C@@H](CCC(=O)O)C(=O)N[C@H](C(=O)N[C@@H](CCC(=O)O)C(=O)N[C@H](C(=O)O)C(C)C)[C@@H](C)O)[C@@H](C)O [HPV E6 #35 (modified)] (Biotin-GRWTGRAMSAWKPTRRETEV-OH; C-terminus assumed) | 2 (A450 nm 1-2) |
| TQGFPGPATWRRISSLESEV | 4 (A450 nm 3-4) |
| CC(C)C[C@H](NC(=O)[C@H](C)NC(=O)[C@H](CO)NC(=O)CNC(=O)[C@@H](NC(=O)CCCC[C@@H]1SC[C@@H]2NC(=O)N[C@@H]21)[C@@H](C)O)C(=O)N[C@@H](CCC(N)=O)C(=O)N[C@@H](C)C(=O)N[C@@H](Cc1c[nH]c2ccccc12)C(=O)N[C@@H](CCCNC(=N)N)C(=O)N[C@@H](Cc1c[nH]cn1)C(=O)N[C@H](C(=O)N[C@@H](CO)C(=O)N[C@@H](CCCNC(=N)N)C(=O)N[C@@H](CCC(N)=O)C(=O)N[C@@H](C)C(=O)N[C@H](C(=O)N[C@@H](CCC(=O)O)C(=O)N[C@@H](CO)C(=O)N[C@H](C(=O)N[C@H](C(=O)O)C(C)C)[C@@H](C)O)[C@@H](C)O)[C@@H](C)O [HPV E6 #66 (modified)] (Biotin-TGSALQAWRHTSRQATESTV-OH; C-terminus assumed) | 1 (A450 nm 0-1) |
| CC[C@H](C)[C@H](NC(=O)[C@H](CCC(N)=O)NC(=O)CCCC[C@@H]1SC[C@@H]2NC(=O)N[C@@H]21)C(=O)N[C@@H](CO)C(=O)N1CCC[C@H]1C(=O)NCC(=O)NCC(=O)N[C@@H](CC(C)C)C(=O)N[C@@H](CCC(=O)O)C(=O)N1CCC[C@H]1C(=O)N1CCC[C@H]1C(=O)N[C@@H](CO)C(=O)N[C@@H](CCC(=O)O)C(=O)N[C@@H](CCCCN)C(=O)N[C@@H](Cc1c[nH]cn1)C(=O)N[C@@H](Cc1ccccc1)C(=O)N[C@@H](CCCNC(=N)N)C(=O)N[C@@H](CCC(=O)O)C(=O)N[C@H](C(=O)N[C@@H](CCC(=O)O)C(=O)N[C@H](C(=O)O)C(C)C)[C@@H](C)O [Tax] | 5 (A450 nm of 4 more than 2× repeated) |
| PYSELNYETSHYPASPDSWV (Biotin-PYSELNYETSHYPASPDSWV) [catenin - delta 2] | 4 (A450 nm 3-4) |

Molecular target: T3, PDZ protein (GST-PDZ fusion) (Homo sapiens, UniProt Q9Y2H9)
T3 construct: made in house; host or cells: E. coli (DH5alpha, BL21 or JM109)
T3 sequence (Q9Y2H9 whole entry, the tested form may be a part): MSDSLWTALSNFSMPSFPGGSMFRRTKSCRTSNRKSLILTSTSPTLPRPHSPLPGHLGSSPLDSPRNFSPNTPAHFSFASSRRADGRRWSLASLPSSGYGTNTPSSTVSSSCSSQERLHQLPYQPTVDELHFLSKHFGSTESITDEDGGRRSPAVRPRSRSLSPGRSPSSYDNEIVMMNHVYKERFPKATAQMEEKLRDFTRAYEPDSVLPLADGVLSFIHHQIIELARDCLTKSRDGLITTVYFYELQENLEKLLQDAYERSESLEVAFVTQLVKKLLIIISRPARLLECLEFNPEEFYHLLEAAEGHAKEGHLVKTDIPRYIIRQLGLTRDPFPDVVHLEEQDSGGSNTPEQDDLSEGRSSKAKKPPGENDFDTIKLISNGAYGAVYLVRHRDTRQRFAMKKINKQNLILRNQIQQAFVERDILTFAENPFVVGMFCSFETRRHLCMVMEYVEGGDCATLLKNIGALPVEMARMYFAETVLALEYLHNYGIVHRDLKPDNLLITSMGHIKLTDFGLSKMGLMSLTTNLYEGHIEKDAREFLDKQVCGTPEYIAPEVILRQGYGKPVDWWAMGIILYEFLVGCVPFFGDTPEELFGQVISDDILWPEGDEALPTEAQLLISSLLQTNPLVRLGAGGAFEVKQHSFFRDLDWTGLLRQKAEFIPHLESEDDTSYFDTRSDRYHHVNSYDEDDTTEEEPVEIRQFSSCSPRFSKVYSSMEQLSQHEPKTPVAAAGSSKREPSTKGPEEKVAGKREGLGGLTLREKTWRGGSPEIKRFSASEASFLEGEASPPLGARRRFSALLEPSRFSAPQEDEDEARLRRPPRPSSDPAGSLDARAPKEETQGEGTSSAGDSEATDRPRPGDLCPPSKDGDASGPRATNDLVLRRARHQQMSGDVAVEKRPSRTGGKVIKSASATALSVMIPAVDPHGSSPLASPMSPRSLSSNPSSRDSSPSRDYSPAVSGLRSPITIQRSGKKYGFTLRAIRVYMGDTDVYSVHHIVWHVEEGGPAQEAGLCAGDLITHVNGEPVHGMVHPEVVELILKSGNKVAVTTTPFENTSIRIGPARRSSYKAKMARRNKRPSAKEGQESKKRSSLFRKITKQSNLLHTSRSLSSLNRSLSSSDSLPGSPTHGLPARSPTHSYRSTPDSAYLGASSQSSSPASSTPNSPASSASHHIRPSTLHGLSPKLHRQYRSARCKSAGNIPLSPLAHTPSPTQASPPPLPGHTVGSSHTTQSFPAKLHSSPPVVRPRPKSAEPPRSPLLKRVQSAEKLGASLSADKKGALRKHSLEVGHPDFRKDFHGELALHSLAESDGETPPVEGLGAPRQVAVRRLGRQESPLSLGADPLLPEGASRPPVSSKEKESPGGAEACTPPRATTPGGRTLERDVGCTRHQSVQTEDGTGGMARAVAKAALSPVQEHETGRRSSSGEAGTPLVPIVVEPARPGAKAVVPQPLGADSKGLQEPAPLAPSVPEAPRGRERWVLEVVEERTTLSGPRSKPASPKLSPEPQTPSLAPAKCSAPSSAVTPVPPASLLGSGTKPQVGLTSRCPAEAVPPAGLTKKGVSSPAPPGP
Test: as above
Assay type: binding
Details: PDZ KIAA0973, PDZ Domain 1
Outline: as §1

| Compound | Classification |
| --- | --- |
| A2AC_HUMAN (Modified) (Biotin-DFRPSFKHILFRRARRGFRQ; not fully specified) | 3 (A450 nm 2-3) |
| CSCC[C@H](NC(=O)[C@H](C)NC(=O)[C@H](CCCNC(=N)N)NC(=O)CNC(=O)[C@@H](NC(=O)[C@H](Cc1c[nH]c2ccccc12)NC(=O)[C@H](CCCNC(=N)N)NC(=O)CNC(=O)CCCC[C@@H]1SC[C@@H]2NC(=O)N[C@@H]21)[C@@H](C)O)C(=O)N[C@@H](CO)C(=O)N[C@@H](C)C(=O)N[C@@H](Cc1c[nH]c2ccccc12)C(=O)N[C@@H](CCCCN)C(=O)N1CCC[C@H]1C(=O)N[C@H](C(=O)N[C@@H](CCCNC(=N)N)C(=O)N[C@@H](CCCNC(=N)N)C(=O)N[C@@H](CCC(=O)O)C(=O)N[C@H](C(=O)N[C@@H](CCC(=O)O)C(=O)N[C@H](C(=O)O)C(C)C)[C@@H](C)O)[C@@H](C)O [HPV E6 #35 (modified)] (Biotin-GRWTGRAMSAWKPTRRETEV-OH; C-terminus assumed) | 2 (A450 nm 1-2) |
| VHDAESSDEDGYDWGPATDL (Biotin-VHDAESSDEDGYDWGPATDL) [zona occludens 3 (ZO-3)] | 2 (A450 nm 1-2) |
| ALVLIAFCIIRRRPSAYQAL (Biotin-ALVLIAFCIIRRRPSAYQAL) [CD68] | 1 (A450 nm 0-1) |
| TQGFPGPATWRRISSLESEV | 1 (A450 nm 0-1) |
| PPATPSPRLALPAHHNATRL (Biotin-PPATPSPRLALPAHHNATRL) [Na+/Pi cotransporter 2] | 2 (A450 nm 1-2) |
| CC(C)C[C@H](NC(=O)[C@H](CCCNC(=N)N)NC(=O)CNC(=O)CNC(=O)[C@H](CCCNC(=N)N)NC(=O)[C@H](C)NC(=O)[C@@H]1CCCN1C(=O)[C@H](CCCNC(=N)N)NC(=O)CNC(=O)CNC(=O)[C@@H](NC(=O)[C@H](C)NC(=O)CCCC[C@@H]1SC[C@@H]2NC(=O)N[C@@H]21)C(C)C)C(=O)N[C@@H](CCC(N)=O)C(=O)NCC(=O)N[C@@H](CCCNC(=N)N)C(=O)N[C@@H](CCCNC(=N)N)C(=O)N[C@@H](CCC(N)=O)C(=O)N[C@H](C(=O)N[C@@H](CCC(N)=O)C(=O)N[C@H](C(=O)O)C(C)C)[C@@H](C)O [HPV E6 58 (modified)] (Biotin-AVGGRPARGGRLQGRRQTQV-OH; C-terminus assumed) | 2 (A450 nm 1-2) |
| CC[C@H](C)[C@H](NC(=O)CNC(=O)[C@H](CO)NC(=O)[C@H](Cc1ccccc1)NC(=O)[C@@H](NC(=O)[C@H](CS)NC(=O)CNC(=O)CNC(=O)[C@H](C)NC(=O)[C@@H]1CCCN1C(=O)[C@@H](NC(=O)[C@@H]1CCCN1C(=O)CCCC[C@@H]1SC[C@@H]2NC(=O)N[C@@H]21)[C@@H](C)CC)[C@@H](C)O)C(=O)N[C@@H](Cc1ccccc1)C(=O)N1CCC[C@H]1C(=O)N[C@H](C(=O)N[C@@H](CC(C)C)C(=O)N[C@H](C(=O)N[C@@H](CO)C(=O)N1CCC[C@H]1C(=O)N[C@@H](CC(C)C)C(=O)O)[C@@H](C)O)[C@@H](C)O [KIA 1481] (Biotin-PIPAGGCTFSGIFPTLTSPL-OH; C-terminus assumed) | 2 (A450 nm 1-2) |

From US20050282743A1, “Molecular interactions in cells” (Arbor Vita Corporation, priority 2001, published 2005)
